{"source": "patent US20050250715A1", "about": "“Remedy” (priority 2002, published 2005)", "key": {"NGF": {"tested_on": "NGF", "assay": "Enhancing activity for NGF production in L-M cells (NGF in culture medium by enzyme immunoassay)", "format": "cell-based, murine", "settings": "20 hours; for Amount of NGF Production (%): control = 100%", "description": "(2) The enhancing activity for NGF production of the compound a was assayed. L-M cells (ATCC CCL-1.2) from murine fibroblasts were suspended in an M199 medium (manufactured by Bio Whittaker) containing 0.5% bactopeptone (manufactured by Gibco) so as to have a concentration of 1.5×10^5 cells/mL. The suspension was put in a 96 well plate in an amount of 0.1 mL each well, and the cells were aseptically cultured. After culturing the cells for 3 days, the medium was removed therefrom, and exchanged with an M199 medium containing 0.5% bovine serum albumin (manufactured by Sigma). The compound a was added thereto, and the cells were cultured for 20 hours. After the termination of the culture, the concentration of NGF in the culture medium was assayed by an enzyme immunoassay method (NGF Emax Immuno Assay System, manufactured by Promega). The experiment was carried out twice, and an average value was taken. […] The amount of NGF production of the control was 0.739 ng/mL. As to the control, the concentration in the culture medium was determined in the same manner except that the compound a was not added. It is the same as that of the following examples."}, "mouse": {"tested_on": "mouse", "assay": "Oral toxicity in mouse", "format": "in vivo", "settings": "mouse (male, 6-week old), orally administered at 1000 mg per kg body weight"}}}
{"smiles": "CC1(C)[C@@H](O[C@H]2O[C@H](C(=O)O)[C@@H](O)[C@H](O)[C@H]2O[C@@H]2O[C@H](C(=O)O)[C@@H](O)[C@H](O)[C@H]2O)CC[C@]2(C)[C@H]3C(=O)C=C4[C@@H]5C[C@@](C)(C(=O)O)CC[C@]5(C)CC[C@@]4(C)[C@]3(C)CC[C@@H]12", "note": "[Glycyrrhizin, glycyrrhizin, reference compound]", "values": [{"measurement": "enhancing activity for NGF production (result in words)", "setting": "NGF", "value": "has enhancing activity for NGF production"}, {"measurement": "Amount of NGF Production (%)", "setting": "NGF; Table 4: Concentration of Sample 0.25 mM", "value": 113.0, "unit": "%"}, {"measurement": "Amount of NGF Production (%)", "setting": "NGF; Table 4: Concentration of Sample 0.5 mM", "value": 204.3, "unit": "%"}, {"measurement": "Amount of NGF Production (%)", "setting": "NGF; Table 4: Concentration of Sample 1.0 mM", "value": 261.0, "unit": "%"}, {"measurement": "toxicity", "setting": "mouse", "value": "no toxicity is found"}]}
